Here are results for four compounds from patent US20070270418A1, “Inhibitors of P38 and Methods of Using the Same” (priority 2003, published 2007).

Assay in all cases: Broad selectivity panel, 32P incorporation
Common to all, as to format: biochemical

One assay has as its target T1, MEK1 (Homo sapiens, UniProt Q02750).
T1 construct: purchased Upstate (Charlottesville, Va.)
Conditions: 40 μM ATP, read-out: Percent inhibition MEK1; for inhibition at 0.1 µM: 0.1 μM compound; for inhibition at 1 µM: 1 μM compound. The method, then:
(§1) Various compounds of the present invention are screened against a panel of 24 additional kinases (Upstate, Charlottesville, Va.). Compounds are tested 0.1 μM and 1 μM in reactions containing 40 μM ATP. Incorporation of radiolabeled phosphate (^32P) into each kinase substrate is measured in the presence and absence of test compound. Results are reported as the percent decrease in the amount of ^32P incorporated into the substrate in the presence of compound, compared to buffer control.

The target in the next assay is T2, CDK2/cyclinA (Homo sapiens, UniProt P24941).
T2 construct: purchased Upstate (Charlottesville, Va.)
The following applies: 40 μM ATP, read-out: Percent inhibition CDK2/cyclinA; for inhibition at 0.1 µM: 0.1 μM compound; for inhibition at 1 µM: 1 μM compound. On the procedure:
as §1

In a further assay the target is T3, PKB α (Homo sapiens, UniProt P31749).
T3 construct: purchased Upstate (Charlottesville, Va.)
Conditions: 40 μM ATP, read-out: Percent inhibition PKB α; for inhibition at 0.1 µM: 0.1 μM compound; for inhibition at 1 µM: 1 μM compound. On the procedure:
as §1

In the next assay the target is T4, PDGFR α (Homo sapiens, UniProt P16234).
T4 construct: purchased Upstate (Charlottesville, Va.)
The following applies: 40 μM ATP, read-out: Percent inhibition PDGFR α; for inhibition at 0.1 µM: 0.1 μM compound; for inhibition at 1 µM: 1 μM compound. The method, then: as §1

A further assay addresses T5, PKA (Homo sapiens, UniProt P17612).
T5 construct: purchased Upstate (Charlottesville, Va.)
The following applies: 40 μM ATP, read-out: Percent inhibition PKA; for inhibition at 0.1 µM: 0.1 μM compound; for inhibition at 1 µM: 1 μM compound. On the procedure: as §1

The target of another assay is T6, MKK6 (Homo sapiens, UniProt P52564).
T6 construct: purchased Upstate (Charlottesville, Va.)
T6 sequence (P52564 1-334): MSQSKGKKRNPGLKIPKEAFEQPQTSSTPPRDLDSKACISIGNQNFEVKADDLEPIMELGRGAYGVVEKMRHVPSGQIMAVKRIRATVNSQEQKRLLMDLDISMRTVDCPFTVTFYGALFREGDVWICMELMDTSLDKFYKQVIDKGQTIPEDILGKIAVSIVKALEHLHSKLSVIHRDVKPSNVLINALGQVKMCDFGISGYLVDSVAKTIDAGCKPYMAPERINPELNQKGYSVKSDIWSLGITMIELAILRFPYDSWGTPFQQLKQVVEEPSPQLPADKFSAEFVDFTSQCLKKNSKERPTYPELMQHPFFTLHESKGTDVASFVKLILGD
The following applies: 40 μM ATP, read-out: Percent inhibition MKK6; for inhibition at 0.1 µM: 0.1 μM compound; for inhibition at 1 µM: 1 μM compound. The method, then: as §1

The next assay has as its target T7, GSK3β (Homo sapiens, UniProt P49841).
T7 construct: purchased Upstate (Charlottesville, Va.)
The following applies: 40 μM ATP, read-out: Percent inhibition GSK3β; for inhibition at 0.1 µM: 0.1 μM compound; for inhibition at 1 µM: 1 μM compound. On the procedure: as §1

The next assay deals with T8, Lyn (Homo sapiens, UniProt P07948).
T8 construct: purchased Upstate (Charlottesville, Va.)
The following applies: 40 μM ATP, read-out: Percent inhibition Lyn; for inhibition at 0.1 µM: 0.1 μM compound; for inhibition at 1 µM: 1 μM compound. The method, then:
as §1

The next assay deals with T9, JNK1α1 (Homo sapiens, UniProt P45983).
T9 construct: purchased Upstate (Charlottesville, Va.)
The following applies: 40 μM ATP, read-out: Percent inhibition JNK1α1; for inhibition at 0.1 µM: 0.1 μM compound; for inhibition at 1 µM: 1 μM compound. On the procedure:
as §1

The next assay addresses T10, JNK3-His (Homo sapiens, UniProt P53779).
T10 construct: His; purchased Upstate (Charlottesville, Va.)
The following applies: 40 μM ATP, read-out: Percent inhibition JNK3-His; for inhibition at 0.1 µM: 0.1 μM compound; for inhibition at 1 µM: 1 μM compound. On the procedure:
as §1

The next assay concerns the target T11, ZAP-70 (Homo sapiens, UniProt P43403).
T11 construct: purchased Upstate (Charlottesville, Va.)
T11 sequence (P43403 1-619): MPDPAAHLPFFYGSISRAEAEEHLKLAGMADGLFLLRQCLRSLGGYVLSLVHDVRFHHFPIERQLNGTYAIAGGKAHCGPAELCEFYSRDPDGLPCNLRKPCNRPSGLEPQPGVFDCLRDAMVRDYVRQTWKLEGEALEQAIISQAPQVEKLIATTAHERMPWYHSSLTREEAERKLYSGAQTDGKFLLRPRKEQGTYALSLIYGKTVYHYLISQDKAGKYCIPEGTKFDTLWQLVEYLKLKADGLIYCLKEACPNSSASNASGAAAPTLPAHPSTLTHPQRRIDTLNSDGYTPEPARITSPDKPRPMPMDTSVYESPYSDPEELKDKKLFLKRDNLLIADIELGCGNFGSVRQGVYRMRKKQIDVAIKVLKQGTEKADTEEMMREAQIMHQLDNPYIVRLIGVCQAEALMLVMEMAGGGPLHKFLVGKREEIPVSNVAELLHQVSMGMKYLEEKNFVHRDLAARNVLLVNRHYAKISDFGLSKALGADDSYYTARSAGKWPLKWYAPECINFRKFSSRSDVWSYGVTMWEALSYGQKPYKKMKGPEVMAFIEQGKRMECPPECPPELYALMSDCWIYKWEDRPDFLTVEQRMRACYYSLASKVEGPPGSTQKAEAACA
The following applies: 40 μM ATP, read-out: Percent inhibition ZAP-70; for inhibition at 0.1 µM: 0.1 μM compound; for inhibition at 1 µM: 1 μM compound. On the procedure:
as §1

Another assay concerns the target T12, CaMKIV (Homo sapiens, UniProt Q16566).
T12 construct: purchased Upstate (Charlottesville, Va.)
T12 sequence (Q16566 1-473): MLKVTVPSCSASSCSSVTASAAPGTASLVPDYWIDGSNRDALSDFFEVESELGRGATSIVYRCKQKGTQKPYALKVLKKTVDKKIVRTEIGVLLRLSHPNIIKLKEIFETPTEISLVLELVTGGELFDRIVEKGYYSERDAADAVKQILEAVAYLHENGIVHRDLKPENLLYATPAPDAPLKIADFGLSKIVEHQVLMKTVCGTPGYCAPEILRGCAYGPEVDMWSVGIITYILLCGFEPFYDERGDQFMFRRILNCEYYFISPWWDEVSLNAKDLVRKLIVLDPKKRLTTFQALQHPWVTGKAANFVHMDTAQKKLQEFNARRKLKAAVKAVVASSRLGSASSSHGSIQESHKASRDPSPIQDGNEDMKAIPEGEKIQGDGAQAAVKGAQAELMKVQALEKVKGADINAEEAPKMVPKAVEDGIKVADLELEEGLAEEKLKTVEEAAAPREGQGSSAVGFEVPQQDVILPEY
Conditions: 40 μM ATP, read-out: Percent inhibition CaMKIV; for inhibition at 0.1 µM: 0.1 μM compound; for inhibition at 1 µM: 1 μM compound. On the procedure: as §1

T10 sequence (P53779 whole entry): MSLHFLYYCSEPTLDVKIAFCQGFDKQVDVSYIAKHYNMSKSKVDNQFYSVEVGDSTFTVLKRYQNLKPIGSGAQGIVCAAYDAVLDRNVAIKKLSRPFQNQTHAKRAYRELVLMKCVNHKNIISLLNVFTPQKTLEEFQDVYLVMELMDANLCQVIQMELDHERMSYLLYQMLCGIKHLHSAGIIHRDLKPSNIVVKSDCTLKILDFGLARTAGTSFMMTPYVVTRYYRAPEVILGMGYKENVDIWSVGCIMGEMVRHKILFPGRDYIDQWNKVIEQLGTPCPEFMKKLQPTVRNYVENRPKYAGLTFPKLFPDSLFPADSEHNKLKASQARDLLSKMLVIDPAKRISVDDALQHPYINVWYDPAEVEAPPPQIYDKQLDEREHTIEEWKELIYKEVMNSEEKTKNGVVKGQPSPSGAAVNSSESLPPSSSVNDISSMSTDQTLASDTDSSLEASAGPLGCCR
T7 sequence (P49841 whole entry, species assumed): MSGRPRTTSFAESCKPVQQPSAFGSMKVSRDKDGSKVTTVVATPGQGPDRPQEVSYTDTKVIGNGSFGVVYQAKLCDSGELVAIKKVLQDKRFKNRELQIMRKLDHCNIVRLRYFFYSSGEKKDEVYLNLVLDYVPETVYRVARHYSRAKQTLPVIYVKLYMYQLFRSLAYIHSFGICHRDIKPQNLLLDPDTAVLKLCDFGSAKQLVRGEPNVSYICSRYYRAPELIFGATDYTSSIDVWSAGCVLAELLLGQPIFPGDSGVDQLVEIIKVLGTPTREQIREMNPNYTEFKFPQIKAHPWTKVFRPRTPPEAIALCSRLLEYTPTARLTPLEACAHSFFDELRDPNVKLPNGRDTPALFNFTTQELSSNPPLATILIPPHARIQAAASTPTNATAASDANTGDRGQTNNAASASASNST
T1 sequence (Q02750 whole entry, species assumed): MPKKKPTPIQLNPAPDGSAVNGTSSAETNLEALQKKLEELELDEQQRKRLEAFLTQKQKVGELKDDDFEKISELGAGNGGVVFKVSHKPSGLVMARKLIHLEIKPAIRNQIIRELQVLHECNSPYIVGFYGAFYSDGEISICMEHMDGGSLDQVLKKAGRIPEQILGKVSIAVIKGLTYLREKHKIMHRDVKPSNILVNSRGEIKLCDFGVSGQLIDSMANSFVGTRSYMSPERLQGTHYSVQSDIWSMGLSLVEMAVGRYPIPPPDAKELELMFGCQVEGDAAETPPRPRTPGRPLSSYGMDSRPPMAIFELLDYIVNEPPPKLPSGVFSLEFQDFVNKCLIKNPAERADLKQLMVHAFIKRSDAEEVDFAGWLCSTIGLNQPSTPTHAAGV
T9 sequence (P45983 1-384 isoform P45983-2, species assumed): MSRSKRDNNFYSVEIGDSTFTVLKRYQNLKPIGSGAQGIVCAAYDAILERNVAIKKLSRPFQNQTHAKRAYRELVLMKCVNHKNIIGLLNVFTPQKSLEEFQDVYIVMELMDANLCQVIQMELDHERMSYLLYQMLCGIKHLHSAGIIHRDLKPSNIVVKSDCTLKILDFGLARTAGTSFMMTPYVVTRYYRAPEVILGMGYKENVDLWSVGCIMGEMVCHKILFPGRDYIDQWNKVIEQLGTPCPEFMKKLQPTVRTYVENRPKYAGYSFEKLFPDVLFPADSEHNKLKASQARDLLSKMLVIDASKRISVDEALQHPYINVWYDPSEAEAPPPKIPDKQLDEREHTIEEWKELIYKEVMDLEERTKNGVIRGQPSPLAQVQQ
T3 sequence (P31749 whole entry, species assumed): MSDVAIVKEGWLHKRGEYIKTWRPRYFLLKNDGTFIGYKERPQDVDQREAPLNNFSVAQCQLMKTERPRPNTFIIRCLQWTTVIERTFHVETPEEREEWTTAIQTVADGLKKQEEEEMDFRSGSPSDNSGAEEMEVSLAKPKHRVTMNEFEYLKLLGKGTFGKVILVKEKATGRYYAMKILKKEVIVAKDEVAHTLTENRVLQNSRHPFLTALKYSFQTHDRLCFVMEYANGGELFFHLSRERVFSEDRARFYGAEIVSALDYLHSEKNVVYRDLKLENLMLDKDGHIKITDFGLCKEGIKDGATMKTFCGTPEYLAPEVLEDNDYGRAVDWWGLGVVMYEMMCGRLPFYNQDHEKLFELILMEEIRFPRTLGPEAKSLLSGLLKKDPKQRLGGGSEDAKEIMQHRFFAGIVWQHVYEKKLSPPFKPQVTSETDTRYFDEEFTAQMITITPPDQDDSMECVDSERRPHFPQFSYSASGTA
T4 sequence (P16234 24-1089, species assumed): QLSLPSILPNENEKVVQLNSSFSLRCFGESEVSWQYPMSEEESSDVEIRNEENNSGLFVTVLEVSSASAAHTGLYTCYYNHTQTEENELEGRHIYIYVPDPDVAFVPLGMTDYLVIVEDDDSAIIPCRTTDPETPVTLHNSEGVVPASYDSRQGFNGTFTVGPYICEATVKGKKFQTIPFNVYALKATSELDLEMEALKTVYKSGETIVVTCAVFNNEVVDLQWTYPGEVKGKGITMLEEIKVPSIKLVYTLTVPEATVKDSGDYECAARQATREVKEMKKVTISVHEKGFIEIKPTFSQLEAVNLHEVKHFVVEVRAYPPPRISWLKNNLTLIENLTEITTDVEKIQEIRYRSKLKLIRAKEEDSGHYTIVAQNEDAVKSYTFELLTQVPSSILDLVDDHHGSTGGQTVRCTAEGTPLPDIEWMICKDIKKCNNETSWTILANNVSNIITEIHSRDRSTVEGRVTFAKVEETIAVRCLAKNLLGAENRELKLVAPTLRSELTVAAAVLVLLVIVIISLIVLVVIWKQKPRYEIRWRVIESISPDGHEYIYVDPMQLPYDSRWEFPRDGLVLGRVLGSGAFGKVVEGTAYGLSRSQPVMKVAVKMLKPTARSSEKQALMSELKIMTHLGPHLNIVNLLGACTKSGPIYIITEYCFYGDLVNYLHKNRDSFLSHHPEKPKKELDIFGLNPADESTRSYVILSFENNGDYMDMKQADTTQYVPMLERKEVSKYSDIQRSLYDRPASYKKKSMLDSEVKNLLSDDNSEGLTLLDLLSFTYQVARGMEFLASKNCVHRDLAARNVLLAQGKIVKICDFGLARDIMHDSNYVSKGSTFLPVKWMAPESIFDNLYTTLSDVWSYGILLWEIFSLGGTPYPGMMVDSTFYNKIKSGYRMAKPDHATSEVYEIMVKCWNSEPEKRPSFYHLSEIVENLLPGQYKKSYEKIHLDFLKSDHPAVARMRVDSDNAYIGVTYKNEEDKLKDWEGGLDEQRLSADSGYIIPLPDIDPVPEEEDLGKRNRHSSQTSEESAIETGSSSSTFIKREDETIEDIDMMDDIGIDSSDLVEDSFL
T8 sequence (P07948 whole entry, species assumed): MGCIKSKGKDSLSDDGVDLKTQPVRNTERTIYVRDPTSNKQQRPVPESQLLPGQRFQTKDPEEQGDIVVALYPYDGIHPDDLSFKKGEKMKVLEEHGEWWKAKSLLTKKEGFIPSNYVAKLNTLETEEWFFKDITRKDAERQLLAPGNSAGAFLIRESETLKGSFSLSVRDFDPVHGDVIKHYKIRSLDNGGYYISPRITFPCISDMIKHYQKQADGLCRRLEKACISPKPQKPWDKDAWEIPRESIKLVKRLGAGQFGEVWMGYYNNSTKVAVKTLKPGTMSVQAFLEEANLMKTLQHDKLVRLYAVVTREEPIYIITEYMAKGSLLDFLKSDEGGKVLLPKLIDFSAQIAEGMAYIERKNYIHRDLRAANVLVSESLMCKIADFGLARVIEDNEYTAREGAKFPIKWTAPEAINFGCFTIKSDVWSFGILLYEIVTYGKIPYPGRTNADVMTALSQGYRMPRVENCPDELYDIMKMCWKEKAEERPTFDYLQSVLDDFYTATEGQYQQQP

Take `CS(=O)(=O)N1CCC(Nc2nccc(-c3c(-c4ccc(F)cc4)nc4occn34)n2)CC1` [CCLXXIX]: the inhibition at 0.1 µM at MEK1 was 7%; at CDK2/cyclinA, 24%; at PKB α it was 5%; on PDGFR α, 0%; at PKA it was 6%; on MKK6, 8%. For the same compound, the inhibition at 0.1 µM was 15% at GSK3β; -7% at Lyn; 37% on JNK1α1; 97% at JNK3-His; 13% at ZAP-70; 18% at CaMKIV. The inhibition at 1 µM at MEK1 is 11%; at CDK2/cyclinA, 65%; at PKB α, 6%; at PDGFR α, -9%; on PKA, -2%; on MKK6, 90%. Besides, the inhibition at 1 µM at GSK3β was 57%; at Lyn it was -13%; on JNK1α1, 86%; at JNK3-His it was 101%; at ZAP-70 it was -1%; on CaMKIV, -2%.
For `CC(=O)N1CCC(Nc2nccc(-c3c(-c4ccc(F)cc4)nc4occn34)n2)CC1` [CCLXXVIII], the inhibition at 0.1 µM on MEK1 was 6%; on CDK2/cyclinA, 1%; on PKB α it was -6%; at PDGFR α it was 23%; on PKA, -6%; at MKK6, 26%. For the same compound, the inhibition at 0.1 µM at GSK3β was 16%; at Lyn, -26%; on JNK1α1, -13%; at JNK3-His, 78%; on ZAP-70, -53%; on CaMKIV, 8%. Also, the inhibition at 1 µM was 13% on MEK1; 20% at CDK2/cyclinA; 4% on PKB α; 17% at PDGFR α; 10% at PKA; 83% at MKK6. Besides, the inhibition at 1 µM on GSK3β was 66%; on Lyn, -29%; on JNK1α1, 61%; on JNK3-His, 100%; at ZAP-70, 18%; at CaMKIV it was 21%.
Turning to `CN1[C@@H]2CC[C@H]1C[C@@H](Nc1nccc(-c3c(-c4ccc(F)cc4)nc4occn34)n1)C2` [CCLXXXI], the inhibition at 0.1 µM is -3% on MEK1; -2% at CDK2/cyclinA; -2% at PKB α; 11% on PDGFR α; -11% on PKA; 19% at MKK6. Further, the inhibition at 0.1 µM at GSK3β was 6%; on Lyn it was -6%; on JNK1α1, -13%; at JNK3-His, 19%; at ZAP-70 it was 12%; at CaMKIV, 12%. In addition, the inhibition at 1 µM on MEK1 was 7%; at CDK2/cyclinA, 5%; on PKB α, 6%; at PDGFR α, 21%; at PKA it was -2%; on MKK6, 76%. The inhibition at 1 µM at GSK3β was 19%; at Lyn, 4%; at JNK1α1, 6%; on JNK3-His it was 75%; at ZAP-70, 30%; at CaMKIV it was 33%.
With `Fc1ccc(-c2nc3occn3c2-c2ccnc(NC3CCNCC3)n2)cc1` [CCLXXX], the inhibition at 0.1 µM on MEK1 is 9%; at CDK2/cyclinA, 3%; on PKB α, -1%; at PDGFR α it was 1%; on PKA it was 0%; on MKK6, 0%. Besides, the inhibition at 0.1 µM on GSK3β is 5%; on Lyn it was -24%; on JNK1α1, -26%; on JNK3-His, 39%; on ZAP-70 it was -2%; on CaMKIV, -10%. In addition, the inhibition at 1 µM at MEK1 was determined as 13%; at CDK2/cyclinA, 19%; on PKB α, 13%; on PDGFR α, 8%; on PKA, 11%; on MKK6, 62%. Besides, the inhibition at 1 µM is 14% on GSK3β; 27% at Lyn; 18% on JNK1α1; 84% on JNK3-His; 9% at ZAP-70; 7% at CaMKIV.
